Legend:
[1] = Tested for inhibition of substrate hydrolysis in the presence of porcine kidney esterase at a concentration of 1 uM
[2] = Tested for inhibition of substrate hydrolysis in the presence of porcine kidney esterase at a concentration of 9 uM
[3] = Tested for inhibition of substrate hydrolysis in the presence of porcine kidney esterase at a concentration of 45 nM

## COC(=O)CCC(=O)N[C@@H](C)C(=O)N[C@@H](C)C(=O)N1CCC[C@H]1C(=O)N/C(=C(/OC(C)=O)C(=O)OC)C(C)C [(E)-2-Acetoxy-3-[((S)-1-{(S)-2-[(S)-2-(3-methoxycarbonyl-propionylamino)-propionylamino]-propionyl}-pyrrolidine-2-carbonyl)-amino]-4-methyl-pent-2-enoic acid methyl ester]
[1]
  Ki: 130 nM
[2]
  Ki: 130 nM

## COC(=O)/C(OC(C)=O)=C(\NC(=O)[C@@H]1CCCN1C(=O)[C@H](C)NC(=O)[C@H](C)NC(=O)c1ccc(C(=O)NS(=O)(=O)c2ccc(Cl)cc2)cc1)C(C)C [(E)-2-Acetoxy-3-{[(S)-1-((S)-2-{(S)-2-[4-(4-chloro-benzenesulfonylaminocarbonyl)-benzoylamino]-propionylamino}-propionyl)-pyrrolidine-2-carbonyl]-amino}-4-methyl-pent-2-enoic acid methyl ester]
[3]
  Ki: 13 nM
